Measurements published in US8637683B2, “Macrocyclic lactone derivatives for the treatment of cancer” (Piramal Enterprises Limited, priority 2009, dated 2014).
Converted amounts (≈) assume the structure as drawn.

Assays:
Format in all cases: cell-based, human
LXF 526L = experiment: Monolayer assay (modified propidium iodide), LXF 526L; conditions: Lung, 4 days of treatment
Description: (§1) Oncotest GmbH, Germany's proprietary tumor cell line panel comprises 40 cell lines. These cell lines were derived from 15 different tumor histotypes, each represented by 1 to 6 different cell lines. Cell lines were established from cancer of the bladder (3), colon (4), head and neck (1), lung (6), breast (3), pancreas (3), prostate (4), ovary (2), kidney (3), liver (1), stomach (1) and the uteri body (1), as well as from melanoma (3), sarcoma (2) and pleuramesothelioma (3). Out of these 40 cell lines, 24 cell lines were established at Oncotest, from patient-derived tumor xenografts. The other 16 cell lines were either provided by the NCI (Bethesda; MD, USA) or were purchased from ATCC (Rockville, Md., USA) or DSMZ (Braunschweig, Germany).
(§2) Cell lines were routinely passaged once or twice weekly and maintained in culture for upto 20 passages. All cells were grown at 37° C. in a humidified atmosphere with 5% CO2 in RPMI 1640 medium supplemented with 10% (v/v) fetal calf serum (FCS) and 0.1 mg/mL gentamicin (medium and all other components from PAA, Cölbe, Germany). […]
(§3) Stock solutions of the test compounds (330 μg/mL in DMSO) were prepared and stored in small aliquots (200 μL) at −20° C. […] Each concentration was evaluated in triplicate. […]
(§4) Cells were plated in 96-well flat-bottom microtiter plates at a cell density of 4,000 to 10,000 cells/well. […] To measure the viable cell number, the remaining adherent cells were killed and permeabilized by repeated freezing and thawing and PI fluorescence was measured using the Cytofluor 4000 microplate reader (excitation λ=530 nm, emission λ=620 nm), which was a measure for the number of cells which survived treatment. Pharmacological effects on cell proliferation and survival were expressed as Test/Control×100 (% T/C) values, with T and C representing the fluorescence read-outs for wells with and without test compound, respectively, i.e. T/C represents the ratio of viable cell numbers following incubation of cell line with/without test compound. […] IC-values were calculated based on the principle of linear two-point curve fit. […]

22RV1 = experiment: Monolayer assay (modified propidium iodide), 22RV1; conditions: 22RV1, Prostate, 4 days of treatment
Description: (§5) Oncotest GmbH, Germany's proprietary tumor cell line panel comprises 40 cell lines. These cell lines were derived from 15 different tumor histotypes, each represented by 1 to 6 different cell lines. Cell lines were established from cancer of the bladder (3), colon (4), head and neck (1), lung (6), breast (3), pancreas (3), prostate (4), ovary (2), kidney (3), liver (1), stomach (1) and the uteri body (1), as well as from melanoma (3), sarcoma (2) and pleuramesothelioma (3). Out of these 40 cell lines, 24 cell lines were established at Oncotest, from patient-derived tumor xenografts. […]
as §3
(§6) Cells were plated in 96-well flat-bottom microtiter plates at a cell density of 4,000 to 10,000 cells/well. […] To measure the viable cell number, the remaining adherent cells were killed and permeabilized by repeated freezing and thawing and PI fluorescence was measured using the Cytofluor 4000 microplate reader (excitation λ=530 nm, emission λ=620 nm), which was a measure for the number of cells which survived treatment. […] IC-values were calculated based on the principle of linear two-point curve fit. […]

BXF 1352L = experiment: Monolayer assay (modified propidium iodide), BXF 1352L; conditions: Bladder, 4 days of treatment
Description: as §5, §3, §6

UXF 1138L = experiment: Monolayer assay (modified propidium iodide), UXF 1138L; conditions: Uterus, 4 days of treatment
Description: as §5, §3, §6

PXF 698L = experiment: Monolayer assay (modified propidium iodide), PXF 698L; conditions: Pleuramesothelioma, 4 days of treatment
Description: as §5, §3, §6

MAXF 401NL = experiment: Monolayer assay (modified propidium iodide), MAXF 401NL; conditions: Mammary, 4 days of treatment
Description: as §5, §3, §6

RKO = experiment: Monolayer assay (modified propidium iodide), RKO; conditions: Colon, 4 days of treatment
Description: as §5, §3, §6

PAXF 1657L = experiment: Monolayer assay (modified propidium iodide), PAXF 1657L; conditions: Pancreas, 4 days of treatment
Description: as §5, §3, §6

LXF 289L = experiment: Monolayer assay (modified propidium iodide), LXF 289L; conditions: Lung, 4 days of treatment
Description: as §5, §3, §6

LXF 1121L = experiment: Monolayer assay (modified propidium iodide), LXF 1121L; conditions: Lung, 4 days of treatment
Description: as §5, §3, §6

T 24 = experiment: Monolayer assay (modified propidium iodide), T 24; conditions: T 24, Bladder, 4 days of treatment
Description: as §1, §2, §3, §4

SACS2 = experiment: Monolayer assay (modified propidium iodide), SACS2; conditions: SACS2, Sarcoma, 4 days of treatment
Description: as §5, §3, §6

HCT 116 = experiment: Monolayer assay (modified propidium iodide), HCT 116; conditions: HCT 116, Colon, 4 days of treatment
Description: as §5, §3, §6

LXF 529L = experiment: Monolayer assay (modified propidium iodide), LXF 529L; conditions: Lung, 4 days of treatment
Description: as §5, §3, §6

TE671 = experiment: Monolayer assay (modified propidium iodide), TE671; conditions: TE671, Sarcoma, 4 days of treatment
Description: as §5, §3, §6

MEXF 1341L = experiment: Monolayer assay (modified propidium iodide), MEXF 1341L; conditions: Melanoma, 4 days of treatment
Description: as §5, §3, §6

MEXF 462NL = experiment: Monolayer assay (modified propidium iodide), MEXF 462NL; conditions: Melanoma, 4 days of treatment
Description: as §5, §3, §6

PXF 1118L = experiment: Monolayer assay (modified propidium iodide), PXF 1118L; conditions: Pleuramesothelioma, 4 days of treatment
Description: as §5, §3, §6

C/C=C/C(O)C(C)/C=C/C(=N\O)C(C)C(O)C(C)C1OC(=O)/C(OC)=C/C(C)=C/C(C)C(O)C(CC)C(O)C(C)C/C(C)=C/C=C/C1OC (stereo not drawn) [Example 7, (3Z,5E,13E,15E)-18-((5Z,6E,10E)-3,9-Dihydroxy-5-(hydroxymino)-4,8-dimethyldodeca-6,10-dien-2-yl)-9-ethyl-8,10-dihydroxy-3,17-dimethoxy-5,7,11,13-tetramethyl oxacyclooctadeca-3,5,13,15-tetraen-2-one]
IC50 (LXF 526L; Homo sapiens, 96 h): < 0.1 ng/mL | IC70 (LXF 526L): 0.1 ng/mL (≈ 0.145 nM) | IC70 (22RV1): 9.0 ng/mL (≈ 13 nM) | IC50 (22RV1; Homo sapiens, 96 h): 4 ng/mL (≈ 5.8 nM) | IC70 (BXF 1352L): 2.0 ng/mL (≈ 2.9 nM) | IC50 (BXF 1352L; Homo sapiens, 96 h): 0.2 ng/mL (≈ 0.29 nM) | IC50 (UXF 1138L; Homo sapiens, 96 h): 5 ng/mL (≈ 7.25 nM) | IC70 (UXF 1138L): 11.0 ng/mL (≈ 15.9 nM) | IC50 (PXF 698L; Homo sapiens, 96 h): 0.4 ng/mL (≈ 0.58 nM) | IC70 (PXF 698L): 2.0 ng/mL (≈ 2.9 nM) | IC50 (MAXF 401NL; Homo sapiens, 96 h): 3 ng/mL (≈ 4.35 nM) | IC70 (MAXF 401NL): 8.0 ng/mL (≈ 11.6 nM) | IC70 (RKO): 0.6 ng/mL (≈ 0.87 nM) | IC50 (RKO; Homo sapiens, 96 h): 0.2 ng/mL (≈ 0.29 nM) | IC50 (PAXF 1657L; Homo sapiens, 96 h): 8 ng/mL (≈ 11.6 nM) | IC70 (PAXF 1657L): >1000 ng/mL | IC50 (LXF 289L; Homo sapiens, 96 h): 6 ng/mL (≈ 8.7 nM) | IC70 (LXF 289L): 68.0 ng/mL (≈ 98.6 nM) | IC50 (LXF 1121L; Homo sapiens, 96 h): 1 ng/mL (≈ 1.45 nM) | IC70 (LXF 1121L): 5.0 ng/mL (≈ 7.25 nM) | IC50 (T 24; Homo sapiens, 96 h): < 0.1 ng/mL | IC70 (T 24): 0.3 ng/mL (≈ 0.435 nM) | IC50 (SACS2; Homo sapiens, 96 h): 5 ng/mL (≈ 7.25 nM) | IC70 (SACS2): >1000 ng/mL | IC70 (HCT 116): 5.0 ng/mL (≈ 7.25 nM) | IC50 (HCT 116; Homo sapiens, 96 h): 3 ng/mL (≈ 4.35 nM) | IC50 (LXF 529L; Homo sapiens, 96 h): 1 ng/mL (≈ 1.45 nM) | IC70 (LXF 529L): 7.0 ng/mL (≈ 10.1 nM) | IC50 (TE671; Homo sapiens, TE-671, 96 h): 2 ng/mL (≈ 2.9 nM) | IC70 (TE671): 5.0 ng/mL (≈ 7.25 nM) | IC50 (MEXF 1341L; Homo sapiens, 96 h): 0.2 ng/mL (≈ 0.29 nM) | IC70 (MEXF 1341L): 2.0 ng/mL (≈ 2.9 nM) | IC50 (MEXF 462NL; Homo sapiens, 96 h): 3 ng/mL (≈ 4.35 nM) | IC70 (MEXF 462NL): 6.0 ng/mL (≈ 8.7 nM) | IC50 (PXF 1118L; Homo sapiens, 96 h): 432 ng/mL (≈ 626 nM) | IC70 (PXF 1118L): >1000 ng/mL
